# Measurements as given in paper PMC4031293 (Molecular pharmaceutics, 2014).
# Entries after “also recorded” stand apart in the source; their conditions may differ. Where a name gives a salt, the structure may show the parent alone. Read-outs that look alike come from different tables or passages of the source.
# Legend:
# [1] = pseudo steady-state blood CsA and plasma NFV concentrations in rats; type: in vivo, rat
# P-gp at the rat BBB [2] = target: T1, P-gp at the rat BBB (Rattus norvegicus, UniProt Q6PSM0); details: from brain:plasma ratios 0.044 and 0.93
# [3] = cited from earlier work
# BCRP = details: cited from earlier work
# P-gp [4] = target: P-gp (Rattus norvegicus, UniProt Q6PSM0); test: in vivo; details: Sprague Dawley; for Kp at 2 h: absence of CsA, 120 min; for Kp at 120 min: with maximum P-gp inhibition by CsA
# P-gp [5] = details: cited from earlier work; for increase in brain distribution in mdr1a/b(−/−) vs. wild-type mice: 2, 3
# P-gp at the human BBB [6] = details: for predicted increase in NFV human brain:plasma concentration ratio: prediction based on the rat study alone
# [7] = test system: intracerebral human glioblastoma; details: co-administration with paclitaxel compared to paclitaxel alone; cited from earlier work
# P-gp at the human BBB [8] = details: tariquidar 6 mg/kg; cited from earlier work
# P-gp [9] = details: P-gp chemically inhibited, mouse or rat; 4; 5; cited from earlier work
# P-gp at the rat BBB [10] = target: T1, P-gp at the rat BBB; details: 5.6 µM CsA blood concentration; 18; cited from earlier work
# P-gp (Rattus norvegicus, UniProt Q6PSM0), sequence (Q6PSM0 1-1272): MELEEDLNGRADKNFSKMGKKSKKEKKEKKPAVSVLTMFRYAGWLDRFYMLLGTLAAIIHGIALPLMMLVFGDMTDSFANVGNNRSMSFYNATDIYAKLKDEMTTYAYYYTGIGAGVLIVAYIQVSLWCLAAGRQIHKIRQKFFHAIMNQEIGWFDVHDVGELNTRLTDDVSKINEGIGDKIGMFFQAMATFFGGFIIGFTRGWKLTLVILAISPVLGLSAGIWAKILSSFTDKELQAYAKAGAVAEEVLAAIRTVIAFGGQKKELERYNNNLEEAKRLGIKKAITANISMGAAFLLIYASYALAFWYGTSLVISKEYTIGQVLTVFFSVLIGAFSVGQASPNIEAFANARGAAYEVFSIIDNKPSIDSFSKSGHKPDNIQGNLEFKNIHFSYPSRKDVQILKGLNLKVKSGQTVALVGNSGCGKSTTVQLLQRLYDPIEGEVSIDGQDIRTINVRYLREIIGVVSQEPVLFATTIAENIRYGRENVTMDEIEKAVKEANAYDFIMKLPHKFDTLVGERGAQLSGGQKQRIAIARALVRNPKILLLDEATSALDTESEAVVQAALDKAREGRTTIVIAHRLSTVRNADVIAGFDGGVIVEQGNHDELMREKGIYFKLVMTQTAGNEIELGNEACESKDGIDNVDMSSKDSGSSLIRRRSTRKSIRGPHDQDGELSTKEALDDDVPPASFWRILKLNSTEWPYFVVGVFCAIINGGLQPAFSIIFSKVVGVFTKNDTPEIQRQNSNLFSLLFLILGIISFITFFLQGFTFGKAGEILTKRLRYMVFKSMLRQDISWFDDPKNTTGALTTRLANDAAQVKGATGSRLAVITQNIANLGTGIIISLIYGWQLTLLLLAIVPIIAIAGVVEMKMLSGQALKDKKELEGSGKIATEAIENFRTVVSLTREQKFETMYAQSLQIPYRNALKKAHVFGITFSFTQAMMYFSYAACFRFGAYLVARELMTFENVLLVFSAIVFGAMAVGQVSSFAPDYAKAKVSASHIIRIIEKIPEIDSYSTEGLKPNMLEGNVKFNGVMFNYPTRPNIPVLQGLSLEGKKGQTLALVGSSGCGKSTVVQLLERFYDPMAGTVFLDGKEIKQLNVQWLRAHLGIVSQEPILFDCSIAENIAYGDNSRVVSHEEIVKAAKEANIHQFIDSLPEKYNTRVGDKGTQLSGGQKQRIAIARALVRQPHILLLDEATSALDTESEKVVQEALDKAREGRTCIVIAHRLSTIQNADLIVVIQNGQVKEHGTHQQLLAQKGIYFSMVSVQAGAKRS
# T1 sequence (Q6PSM0 1-1272): as above
smiles,measurement,setting,value
"Cc1c(O)cccc1C(=O)N[C@@H](CSc1ccccc1)[C@H](O)CN1C[C@H]2CCCC[C@H]2C[C@H]1C(=O)NC(C)(C)C [NFV, Nelfinavir mesylate]",effect of CsA on pseudo steady-state plasma NFV concentration,"[1]; at 120 min, Student's t-test",did not significantly affect; also recorded: not significantly affected
same,time to pseudo steady-state NFV plasma concentration,[1]; i.v. bolus plus constant rate i.v. infusion,≤ 30 min
same,"ft(P-gp), not corrected for vascular content",P-gp at the rat BBB [2],0.95
same,blood: plasma ratio,[3],0.877
same,substrate of BCRP,BCRP,not a substrate
same,Kp at 2 h,P-gp [4]; NFV brain:plasma concentration ratio corrected for vascular contamination,0.014 ± 0.01
same,Kp at 2 h,"P-gp [4]; NFV brain:plasma concentration ratio, not corrected for vascular contamination",0.044 ± 0.01
same,Kp at 120 min,P-gp [4]; NFV brain:plasma ratio after vascular-content correction,0.9 ± 0.16
same,Kp at 120 min,"P-gp [4]; NFV brain:plasma ratio, uncorrected for vascular content",0.93 ± 0.16
same,increase in brain distribution in mdr1a/b(−/−) vs. wild-type mice,P-gp [5],3400%
same,increase in brain:blood concentration ratio in mdr1a/b(−/−) vs. wild-type mice,P-gp [5]; 5,3400%
same,predicted increase in NFV human brain:plasma concentration ratio,P-gp at the human BBB [6]; CsA blood 1.5 µM,236%
same,predicted increase in the NFV brain:plasma concentration ratio / distribution into the human brain,"P-gp at the human BBB [6]; CsA blood 1.5 µM, rat data and in vitro LLCPK1-MDR1 data",241%
same,predicted increase in the NFV brain:plasma concentration ratio at the human BBB,"P-gp at the human BBB [6]; CsA blood 2.8 µM, in vitro data scaled using rat in vivo data",555%
same,predicted increase in NFV human brain:plasma concentration ratio,P-gp at the human BBB [6]; CsA blood 2.8 µM,589%
C/C=C/C[C@@H](C)C(=O)[C@H]1C(=O)N[C@@H](C(C)C)C(=O)N(C)CC(=O)N(C)[C@@H](CC(C)C)C(=O)N[C@@H](C(C)C)C(=O)N(C)[C@@H](CC(C)C)C(=O)N[C@@H](C)C(=O)N[C@H](C)C(=O)N(C)[C@@H](CC(C)C)C(=O)N(C)[C@@H](CC(C)C)C(=O)N(C)[C@@H](C(C)C)C(=O)N1C [PSC833],brain tumor volume,[7],significant reduction in the brain tumor volume
"CNC(=O)C(CCN1CCC(O)(c2ccc(Cl)cc2)CC1)(c1ccccc1)c1ccccc1 [dLop, N-desmethyl-loperamide]",increase in distribution into the human brain,P-gp at the human BBB [8],≤ 300%
CN(C)C(=O)C(CCN1CCC(O)(c2ccc(Cl)cc2)CC1)(c1ccccc1)c1ccccc1 [loperamide],increase in brain distribution in the presence vs. absence of the P-gp inhibitor,P-gp [9],1500%
same,increase in brain distribution in mdr1a/b(−/−) vs. wild-type mice,P-gp [5],1200%
same,increase in total loperamide-radioactivity uptake into the brain of rats,P-gp at the rat BBB [10],588%
